The test system of one assay is plasma triglycerides. Description: Rat plasma triglyceride levels after 3 or 5 days BID treatment. It counts as in vivo. The following applies: 25 mg/kg po BID for 3 or 5 days, 16 hours after the last dose. On the procedure:
The efficacy of particular rosuvastatin compounds was then determined in vivo.
112 male SD rats (Harlan) were housed in groups of 6 under a 12 h light dark cycle (lights on 07.00 h) with free access to food (normal laboratory chow) and water. Animals between 148-183 g were allocated to treatment groups of 8 balanced by body weight and treatments were balanced across cages.
The rosuvastatin analogues were made up in 10% PEG300/10% cremophor/80% methyl cellulose (0.5%) (vehicle 1) to make a 5 mg/mL solution. The rosuvastatin compounds used were:
Rosuvastatin was formulated in 0.5% Tween in 0.5% methyl cellulose (vehicle 2) at 5 mg/kg as a suspension.
Rats were orally dosed with vehicle 1, one of the rosuvastatin analogues in vehicle 1 (25 mg/kg), vehicle 2 or rosuvastatin in vehicle 2 (25 mg/kg po), BID for 3 or 5 days.
Sixteen hours after the last treatment, terminal plasma samples were taken, stored at −20° C., and transported on dry ice for analysis of triglyceride levels.
Data for each time-point were analysed by 1-way ANOVA and post-hoc Dunnett's test.

The target in the next assay is DPPIV (Homo sapiens, UniProt P27487). Description: DPPIV protease inhibition, substrate Gly-Pro-AMC (Example 97). It counts as biochemical. As to the method: The solutions of the compounds to be tested were prepared in DMSO at a concentration of 10 mM, divided into aliquots and stored at −20° C. The stock solutions were further diluted with assay buffer to make final test solutions. All the final test solutions contained no more than 2.0% DMSO.
Sequence of DPPIV (P27487 whole entry, species assumed): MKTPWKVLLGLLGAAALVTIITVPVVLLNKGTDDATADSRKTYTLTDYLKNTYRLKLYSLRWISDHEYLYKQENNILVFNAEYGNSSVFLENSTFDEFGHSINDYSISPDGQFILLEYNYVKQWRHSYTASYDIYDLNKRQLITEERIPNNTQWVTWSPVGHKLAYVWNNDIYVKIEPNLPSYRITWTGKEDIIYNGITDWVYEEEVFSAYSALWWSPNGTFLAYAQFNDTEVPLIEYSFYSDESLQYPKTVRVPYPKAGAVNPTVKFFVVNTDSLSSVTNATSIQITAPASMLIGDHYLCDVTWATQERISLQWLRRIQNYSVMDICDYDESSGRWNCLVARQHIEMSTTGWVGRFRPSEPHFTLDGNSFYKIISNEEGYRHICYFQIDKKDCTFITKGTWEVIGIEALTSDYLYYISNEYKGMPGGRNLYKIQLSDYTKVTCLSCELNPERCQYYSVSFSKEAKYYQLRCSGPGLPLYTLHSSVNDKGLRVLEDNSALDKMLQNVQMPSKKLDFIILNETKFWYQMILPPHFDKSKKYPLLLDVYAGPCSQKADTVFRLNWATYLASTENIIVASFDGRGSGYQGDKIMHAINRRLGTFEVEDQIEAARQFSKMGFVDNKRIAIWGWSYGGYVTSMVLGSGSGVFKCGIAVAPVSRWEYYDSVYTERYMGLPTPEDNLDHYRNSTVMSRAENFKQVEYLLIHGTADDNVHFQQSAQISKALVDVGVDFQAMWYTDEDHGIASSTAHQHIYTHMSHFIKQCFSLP
Data were recorded by PHEARstar^PLUS.
Each assay was repeated for each compound 10 times.

Assay [1] relates to PathHunter NHRPro cell lines. As to the kind of experiment: PathHunter NHRPro cell assay, agonist format (Examples 90-92). It counts as cell-based. The conditions noted are these: RARβ, NHR Protein Interaction; for pEC50: read-out: RC50 (EC50); for Emax: read-out: Max Response. As to the method:
Methodology for Examples 90-92 Cell Handling
PathHunter NHRPro cell lines were expanded from freezer stocks in T25 flasks according to standard procedures and maintained in selective growth media prior to assay.
Once it was established that the cells were healthy and growing normally, cells were passaged from flasks using cell dissociation reagent and seeded into white walled clear bottom 384-well microplates for compound profiling.
For profiling, cells were seeded at a density of 10000 cells per well in a total volume of 20 μL and were allowed to adhere and recover overnight prior to compound addition. Media contained charcoal-dextran filtered serum to reduce the level of hormones present.
Intermediate dilution of compound stocks were generated such that 5 μL of 5× compound could be added to each well with a final DMSO concentration of 1% of total volume.
For profiling compound in agonist mode, the cells were incubated in the presence of compound at 37° C. for 5 hours.
After appropriate compound incubation, assay signal was generated through a single addition of 15 μL (50% v/v) of PathHunter Detection reagent cocktail for agonist and antagonist assays respectively followed by one hour incubation at room temperature.
Microplates were read following signal generation with a PerkinElmer Envision™ instrument for chemiluminescent signal detection.
Dose curves in the presence and absence of compound were plotted using GraphPad Prism or Activity Base.
For the agonist mode, percentage activity was calculated using the following formula: % Activity=100%×(Mean RLU of test sample−mean RLU of vehicle control)/(mean MAX RLU control ligand−mean RLU of vehicle control).

Assay [2] concerns anaerobic bacterial strains. As to the kind of experiment: microbe, parasite or virus in culture. The conditions noted are these: read-out: MIC (>90%). It counts as cell-based, bacteria.
The test system of another assay is HepG2 cells. As to the kind of experiment: HepG2 cytotoxicity, MTT, 72 hours (Examples 93-95). It is filed as cell-based. The following applies: Cell Loss; for AC50: Homo sapiens, HepG2, read-out: AC50 (concentration at which 50% maximum effect is observed). As to the method:
Methodology for Examples 93-95
A number of analogues were tested for their ability to kill cancer cells.
HepG2 cells were plated on 96-well tissue culture treated polystyrene plates at 0.5×10^4 cells in 100 μL per well. After 24 hr the cells are dosed with test compound at a range of concentrations and incubated for 72 hours. One hour prior to the end of the incubation period, the cells are loaded with MU [yellow; 3-(4,5-dimethyl-2-thiazolyl)-2,5-diphenyl-2H-tetrazolium bromide], the plates are dried and re-solubilised using DMSO. The plates are then scanned using SpectraFluor Plus (TECAN).
Cytotoxicity was assessed using MU. The assay provides a measurement of mitochondrial dehydrogenase activity and cell loss.
A decrease can indicate a loss of cells indicating toxicity due to necrosis, apoptosis or a reduction in cellular proliferation.
A decrease can also indicate an effect on mitochondrial function as mitochondrial dehydrogenasesreduce the MTT [yellow; 3-(4,5-dimethyl-2-thiazolyl)-2,5-diphenyl-2H-tetrazolium bromide] to formazan. The formazan is detected in this assay.
The cells were dosed at concentrations of 0.04, 0.1, 0.4, 1, 4, 10, 40 and 100 μM. The assay was repeated three times at each concentration.
AC50=The concentration at which 50% maximum effect is observed for each cell health parameter.
The cells were dosed at concentrations of 0.02, 0.05, 0.2, 0.5, 2, 5, 20 and 50 μM. The assay was repeated three times at each concentration.
The cells were dosed at concentrations of 0.04, 0.1, 0.4, 1, 4, 10, 40 and 100 μM for bexarotene and the compound of formula 102 when Z is CH═NOH (compound 13a). The cells were dosed at concentrations of 0.02, 0.05, 0.2, 0.5, 2, 5, 20 and 50 μM for the compound of formula 102 when Z is CH═NOMe (compound 13b). The assay was repeated three times at each concentration.

Assay [3] has as its target neuraminidase of oseltamivir-sensitive influenza virus (UniProt P03468). It is filed as biochemical.
The test system of assay [4] is PathHunter NHRPro cell lines. As to the kind of experiment: PathHunter NHRPro cell assay, agonist format (Examples 90-92). The following applies: for pEC50: read-out: RC50 (EC50). It is filed as cell-based.
[5] abbreviates: Bacteroides fragilis, ATCC25293, 48 h.
The mark [6] stands for this setting: Prevotella melaninogenica, ATCC25845, 48 h.
Setting [7] is: Example 95, dosed 0.04-100 μM (compound 13b 0.02-50 μM).

In general, pEC50 refers to the EC50 on a negative log10 scale, so that one unit is a factor of ten. As usually defined, the pIC50 is the IC50 on a negative log10 scale, so that one unit is a factor of ten. Low readings indicate a high IC50, high ones a low IC50. One may read the EC90 as the concentration needed for an effect of 90%. High values mean a need for much substance, low ones an effect from little substance.

pEC50, pIC50: −log10 of the molar value. ≈ marks a conversion by molar mass, not a printed value. Where “and” joins values, the source holds several entries; their conditions need not be identical. Equal entries are not always repeated. Where two headings read alike, the source gives them in different places.

Sequence of neuraminidase of oseltamivir-sensitive influenza virus (P03468 whole entry, looked up): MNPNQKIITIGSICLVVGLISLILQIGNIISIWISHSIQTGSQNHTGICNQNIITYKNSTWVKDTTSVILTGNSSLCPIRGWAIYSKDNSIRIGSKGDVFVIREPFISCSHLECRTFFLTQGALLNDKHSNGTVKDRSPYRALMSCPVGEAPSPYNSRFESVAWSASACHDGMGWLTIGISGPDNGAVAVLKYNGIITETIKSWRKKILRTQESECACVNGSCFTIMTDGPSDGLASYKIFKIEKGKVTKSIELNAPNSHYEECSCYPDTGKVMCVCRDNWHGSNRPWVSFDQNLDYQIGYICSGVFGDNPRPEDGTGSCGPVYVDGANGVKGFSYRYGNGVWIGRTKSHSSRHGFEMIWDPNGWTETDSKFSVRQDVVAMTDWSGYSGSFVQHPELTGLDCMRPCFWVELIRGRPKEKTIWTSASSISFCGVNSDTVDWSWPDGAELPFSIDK

Turning to `COC1C[C@H](OC(=O)c2cccnc2)C[C@@H](/C=C/c2c(-c3ccc(F)cc3)nc(N(C)S(C)(=O)=O)nc2C(C)C)O1` (stereo partly shown), in the assay with plasma triglycerides, the “In vivo (plasma triglycerides)” value is given as “Reduction in plasma triglycerides”.
Take `CC(C)OC1C[C@H](OCc2ccccc2)C[C@@H](/C=C/c2c(-c3ccc(F)cc3)nc(N(C)S(C)(=O)=O)nc2C(C)C)O1` (stereo partly shown): the “In vivo (plasma triglycerides)” value with plasma triglycerides is listed as “Reduction in plasma triglycerides”.
For `CON=C(CC(=O)N1CCn2c(nnc2C(F)(F)F)C1)Cc1cc(F)c(F)cc1F` (mixture of isomers) [Compound 24b, 3-(Methoxyimino)-1-(3-(trifluoromethyl)-5,6-dihydro-[1,2,4]triazolo[4,3-a]pyrazin-7(8H)-yl)-4-(2,4,5-trifluorophenyl)butan-1-one], the “Activity as inhibitor of DPPIV (in words)” value on DPPIV is on record as “did not exhibit significant activity”.
For the compound `CC1=C(/C=C/C(C)=C\C=C\C(C)=C\C(=O)O)C(C)(C)CCC1` [9 Cis Retanoic acid], in assay [1], the “Max Response” value is 87.826 and 98.978; the pEC50 is 8.30 and 8.15.
Take `COc1ccc(-c2ccc3cc(C(=O)O)ccc3c2)cc1C12CC3CC(CC(C3)C1)C2` [Adapalene]: in assay [1], the Emax worked out at 147% and the pEC50 was 8.74.
With `COC(Cn1c([N+](=O)[O-])cnc1C)OC` [Compound 3a, 1-(2,2-Dimethoxyethyl)-2-methyl-5-nitro-1H-imidazole], the MIC in assay [2] (setting [5]) is 0.5 µg/mL (≈ 2.32 µM); in assay [2] (Clostridioides difficile, 48 h), at most 0.25 µg/mL; in assay [2] (Clostridium perfringens, 48 h), 1 µg/mL (≈ 4.65 µM); in assay [2] (setting [6]), 0.5 µg/mL (≈ 2.32 µM).
Regarding `CON=CCn1c([N+](=O)[O-])cnc1C` [Compound 3b, 2-(2-Methyl-5-nitro-1H-imidazol-1-yl)acetaldehyde O-methyl oxime], the MIC in assay [2] (setting [5]) was 0.5 µg/mL (≈ 2.52 µM); in assay [2] (Clostridioides difficile, 48 h) it was at most 0.25 µg/mL; in assay [2] (Clostridium perfringens, 48 h), 1 µg/mL (≈ 5.05 µM); in assay [2] (setting [6]) it was 0.5 µg/mL (≈ 2.52 µM).
For `COc1ccc(-c2ccc3cc(C=NO)ccc3c2)cc1C12CC3CC(CC(C3)C1)C2` [Compound 5a, 6-(3-(Adamantan-1-yl)-4-methoxyphenyl)-2-naphthaldehyde oxime], in assay [1], the Emax was 45.1% and the pEC50 was 5.89.
With `CON=Cc1ccc2cc(-c3ccc(OC)c(C45CC6CC(CC(C6)C4)C5)c3)ccc2c1` [Compound 5b, 6-(3-(Adamantan-1-yl)-4-methoxyphenyl)-2-naphthaldehyde O-methyl oxime], in assay [1], the Emax was 81.1% and the pEC50 was 6.08.
Regarding `C=C(c1ccc(C=NO)cc1)c1cc2c(cc1C)C(C)(C)CCC2(C)C` [Compound 13a, 4-(1-(3,5,5,8,8-Pentamethyl-5,6,7,8-tetrahydronaphthalen-2-yl)vinyl)benzaldehyde oxime], in the assay with HepG2 cells (setting [7]), the “MEC (minimum effective concentration that significantly crosses vehicle threshold)” value was 40 µM and the AC50 stood at 15800 nM.
For `C=C(c1ccc(C=NOC)cc1)c1cc2c(cc1C)C(C)(C)CCC2(C)C` [Compound 13b, 4-(1-(3,5,5,8,8-Pentamethyl-5,6,7,8-tetrahydronaphthalen-2-yl)vinyl)benzaldehyde O-methyl oxime], in the assay on HepG2 cells (setting [7]), the “MEC (minimum effective concentration that significantly crosses vehicle threshold)” value amounted to 50 µM and the AC50 is 45600 nM.
Turning to `N[C@@H](CCN1CCn2c(nnc2C(F)(F)F)C1)Cc1cc(F)c(F)cc1F` [Compound 24a, (R)-4-(3-(Trifluoromethyl)-5,6-dihydro-[1,2,4]triazolo[4,3-a]pyrazin-7(8H)-yl)-1-(2,4,5-trifluorophenyl)butan-2-amine], on DPPIV, the “Activity as inhibitor of DPPIV (in words)” value was “showed an activity”. At DPPIV (DPPIV, substrate Gly-Pro-AMC), this compound gave a pIC50 of 7.09.
`COc1ccc(-c2ccc3cc(C=O)ccc3c2)cc1C12CC3CC(CC(C3)C1)C2` [Formula 135; Z is C(O)H]: in assay [1], the “Max Response” value came to 115.93 and the pEC50 was 6.85.
The matching figures for `COc1ccc(-c2ccc3cc(CO)ccc3c2)cc1C12CC3CC(CC(C3)C1)C2` [Formula 135; Z is CH2OH]: 131.9 and 6.70.
For the compound `Cc1ncc([N+](=O)[O-])n1CCO` [Metronidazole, metronidazole, reference compound], the MIC in assay [2] (setting [5]) is 0.25 µg/mL (≈ 1.46 µM); in assay [2] (Clostridioides difficile, 48 h), at most 0.25 µg/mL; in assay [2] (Clostridium perfringens, 48 h), 0.5 µg/mL (≈ 2.92 µM); in assay [2] (setting [6]), 0.25 µg/mL (≈ 1.46 µM).
In assay [3], `CCOC(=O)C1=C[C@@H](OC(CC)CC)[C@H](NC(C)=O)[C@@H](N)C1` [Oseltamivir, oseltamivir, reference compound] gave an EC90 of 1.3 nM. In other words, the single-digit nanomolar range.
As to `CC(=O)c1c(C)c2cnc(Nc3ccc(N4CCNCC4)cn3)nc2n(C2CCCC2)c1=O` [PD-0332991], in the assay on HepG2 cells (Example 94, dosed 0.02-50 μM), the “MEC (minimum effective concentration that significantly crosses vehicle threshold)” value came to 0.2 µM and the AC50 turned out to be 1930 nM.
Turning to `CC(C)c1nc(N(C)S(C)(=O)=O)nc(-c2ccc(F)cc2)c1/C=C/[C@@H](O)C[C@@H](O)CC(=O)O` [Rosuvastatin, reference compound], the “In vivo (plasma triglycerides)” value in the assay on plasma triglycerides (25 mg/kg) is “Reduction in”; in the assay on plasma triglycerides (listed as rosuvastatin, 25 mg/kg), “marked reduction in plasma triglycerides”.
For `NC(=O)CC[C@@H]1NC(=O)[C@H](Cc2ccccc2)NC(=O)[C@H](Cc2ccc(O)cc2)NC(=O)[C@@H](N)CSSC[C@@H](C(=O)N2CCC[C@H]2C(=O)N[C@@H](CCCN=C(N)N)C(=O)NCC(N)=O)NC(=O)[C@H](CC(N)=O)NC1=O` [Vasopressin], in assay [4] (AVPR2, Arrestin), the “Max Response” value is on record as 101.99 and the pEC50 is 9.12.
`COCCCOc1cc(CC(CC2NC(=O)OC2CC(C(=O)NCC(C)(C)C#N)C(C)C)C(C)C)ccc1OC` (stereo not shown) [comparative example]: the “Anti-influenza neuraminidase activity (in words)” value in assay [3] was “No activity was observed”.
“Angiotensin II (DRVYIHPF; Angiotensin-2; UniProt P01019 25-32, looked up)”: in assay [4] (AGTR1, Arrestin), the “Max Response” value was 101.02 and the pEC50 is 7.99.
